The values that follow come from US12257290B2, “PIC1 inhibition of myeloperoxidase oxidative activity in an animal model” (priority 2018, dated 2025).

For experiment [1], the system named is human neutrophils. Kind of experiment: PMA-initiated NET formation by human neutrophils (fluorescence microscopy, PicoGreen free DNA). It is filed as cell-based. The settings on record: 5 mM PA-dPEG24, PMA + hydrogen peroxide. How it is done:
(§1) Neutrophils from the blood of healthy volunteers were purified from heparinized blood by Hypaque-Ficoll step gradient centrifugation, dextran sedimentation, and hypotonic lysis, as previously described.
(§2) A Neutrophil Extracellular Trap assay was performed in a microtiter plate as follows. The formation of NETs was induced by incubating 2.0×10^5 neutrophils in a 96 well tissue culture plates with RPMI media alone, or adding 0.05% of H2O2, or 12 nM PMA, or 8 μg/ml MPO, or PA-dPEG24 at various concentrations. For immune complex sera induced NET formation, activated sera was made by adding 5 μl of ovalbumin-anti-ovalbumin immune complex to 5% NHS in 0.3 ml of GVBS^++. This combination was allowed to incubate for 30 minutes at 37° C., and then 0.05 ml was added to the neutrophils in RPMI. Cells were then incubated for 1.5 hours at 37° C. in 5% CO2 incubator.
NET formation was quantitatively assayed as follows. Free DNA was measured by PicoGreen in the supernatant recovered from the NET microtiter plate well assay. Five hundred units of […] (Fisher) were added to each well to allow for digestion of released extracellular DNA for 10 minutes in 37° C. incubator. […] The fluorescence was then quantified on a BioTek microplate reader at Excitation 485 nm/Emission 528 nm.
(§3) NET formation was assayed by fluorescence microscopy. […]

Experiment [2] deals with human neutrophils. Kind of experiment: Immune complex-activated serum-initiated NET formation by human neutrophils (fluorescence microscopy, PicoGreen free DNA). The experiment is classed as cell-based. As to conditions: for decrease of free DNA (PicoGreen): immune complex-activated sera + hydrogen peroxide. How it is done: as §1, §2
NET formation was quantitatively assayed as follows. Free DNA was measured by PicoGreen in the supernatant recovered from the NET microtiter plate well assay. Five hundred units of […] (Fisher) were added to each well to allow for digestion of released extracellular DNA for 10 minutes in 37° C. incubator. The preparation was then aliquoted into an adjacent well and mixed 1:1 with prepared PICO green reagent (Fisher). The fluorescence was then quantified on a BioTek microplate reader at Excitation 485 nm/Emission 528 nm.
as §3
PA-dPEG24 inhibits immune complex-initiated NET formation by human neutrophils. A potential relationship between immune complex-initiated complement-activated human sera and NET formation by human neutrophils was evaluated. […] The immune complex-initiated complement-activated human sera was then incubated with purified human neutrophils resulting in NET formation quantified by free DNA measurement with PicoGreen. The relative contribution of immune complexes was initially evaluated by themselves compared with immune complex-initiated complement-activated human sera for generation of NETs. […]

Ends that are not written are not given here.

As for “IALILEPICCQERAA-dPEG24 (cysteine pairing not given here) [PA-dPEG24, 15-amino acid PEGylated peptide, 24 PEG moieties at the C-terminus]”, the “NETs identified by fluorescence microscopy” value is on record as “did not generate NETs” with human neutrophils [1] and “no NETs were identified” with human neutrophils [2] (5 mM PA-dPEG24, immune complex-initiated complement-activated sera). In addition, the “inhibition of free DNA elaboration (PicoGreen)” value in the experiment on human neutrophils [1] (vs no inhibitor, P=0.01) is 2.6 fold. Moreover, the “decrease of free DNA (PicoGreen)” value was determined as 23% with human neutrophils [2] (2.2 mM PA-dPEG24, P=0.037) and 3 fold in the experiment with human neutrophils [2] (4.5 mM PA-dPEG24, P<0.001).
